Source: US20120115877A1, “Facially Amphiphilic Compounds, Compositions, And Uses Thereof In Treating Cancer” (POLYMEDIX, INC., priority 2010, published 2012)
Converted amounts (≈) assume the structure as drawn.

Tests used:
[1] = tested on: human red blood cells; test: Lysis of human red blood cells (HC50); type: cell-based
[2] = tested on: MCF-7 (ATCC HTB-22); test: XTT cell viability assay, growth inhibition; type: cell-based, human
Method: (§1) Compound A was tested against two human breast cancer cell lines, MCF-7 (ATCC HTB-22) and TMX2-28, and one non-tumorigenic breast cell line, MCF-10A (ATCC CRL-10317). MCF-7 and TMX2-28 cells were grown in DC5 cell growth media while the MCF-10A cells were grown in MEGM, both supplemented with 5% bovine growth serum. The cells were grown using standard techniques. Cell cultures at 50% confluence were harvested with trypsin, seeded onto sterile 96 well plates at a density of 10,000 cells/well and allowed to grow overnight to 50% confluence. Compound A was then added to the growth medium and allowed to further incubate for 48 hours. Viable cells were quantitated using an XTT assay (purchased from Roche).

[3] = tested on: TMX2-28; test: XTT cell viability assay, growth inhibition; type: cell-based, human
Method: as §1

[4] = tested on: MCF-10A (ATCC CRL-10317); test: XTT cell viability assay, growth inhibition; type: cell-based; settings: Homo sapiens, MCF10A, non-tumorigenic, 48 hours incubation
Method: as §1

[5] = tested on: RPMI-8226; test: NCI-60 screen, Leukemia; type: cell-based, human; settings: 10 μM
Method: (§2) Several compounds were tested at single concentrations (10 μM) against 59 different human tumor cell lines, representing leukemia, melanoma and cancers of the lung, colon, brain, ovary, breast, prostate, and kidney (see, Table 3). The human tumor cell lines of the cancer screening panel were grown in RPMI 1640 medium containing 5% fetal bovine serum and 2 mM L-glutamine. For a typical screening experiment, cells were inoculated into 96 well microtiter plates in 100 μL at plating densities ranging from 5,000 to 40,000 cells/well depending on the doubling time of individual cell lines. After cell inoculation, the microtiter plates were incubated at 37° C., 5% CO2, 95% air and 100% relative humidity for 24 hours prior to addition of the compounds.
(§3) After 24 hours, two plates of each cell line were fixed in situ with TCA, to represent a measurement of the cell population for each cell line at the time of drug addition (Tz). Compounds were solubilized in dimethyl sulfoxide at 400-fold the desired final maximum test concentration and stored frozen prior to use. At the time of drug addition, an aliquot of frozen concentrate was thawed and diluted to twice the desired final maximum test concentration with complete medium containing 50 μg/ml gentamicin. Additional four, 10-fold or ½ log serial dilutions were made to provide a total of five compound concentrations plus control. Aliquots of 100 μl of these different drug dilutions were added to the appropriate microtiter wells already containing 100 μl of medium, resulting in the required final compound concentrations.
(§4) Following drug addition, the plates were incubated for an additional 48 hours at 37° C., 5% CO2, 95% air, and 100% relative humidity. For adherent cells, the assay was terminated by the addition of cold TCA. Cells were fixed in situ by the gentle addition of 50 μl of cold 50% (w/v) TCA (final concentration, 10% TCA) and incubated for 60 minutes at 4° C. The supernatant was discarded, and the plates were washed five times with tap water and air dried. Sulforhodamine B (SRB) solution (100 μl) at 0.4% (w/v) in 1% acetic acid was added to each well, and plates were incubated for 10 minutes at room temperature. After staining, unbound dye was removed by washing five times with 1% acetic acid and the plates were air dried. Bound stain was subsequently solubilized with 10 mM trizma base, and the absorbance was read on an automated plate reader at a wavelength of 515 nm. For suspension cells, the methodology was the same except that the assay was terminated by fixing settled cells at the bottom of the wells by gently adding 50 μl of 80% TCA (final concentration, 16% TCA). Using the seven absorbance measurements (time zero, (Tz), control growth, (C), and test growth in the presence of drug at the five concentration levels (Ti)), the percentage growth was calculated at each of the compound concentrations levels. Percentage growth inhibition was calculated as:
(§5) [(Ti−Tz)/(C−Tz)]×100 for concentrations for which Ti>/=Tz
(§6) [(Ti−Tz)/Tz]×100 for concentrations for which Ti<Tz.
(§7) Three dose response parameters were calculated for each compound. Growth inhibition of 50% (GI50) was calculated from [(Ti−Tz)/(C−Tz)]×100=50, which is the compound concentration resulting in a 50% reduction in the net protein increase (as measured by SRB staining) in control cells during the compound incubation. The compound concentration resulting in total growth inhibition (TGI) was calculated from Ti=Tz. The LC50 (concentration of compound resulting in a 50% reduction in the measured protein at the end of the compound treatment as compared to that at the beginning) indicating a net loss of cells following treatment was calculated from [(Ti−Tz)/Tz]×100=−50. Values were calculated for each of these three parameters if the level of activity was reached; however, if the effect was not reached or was exceeded, the value for that parameter was expressed as greater or less than the maximum or minimum concentration tested.

[6] = tested on: 786-0; test: NCI-60 screen, Renal Cancer; type: cell-based, human; settings: 10 μM
Method: as §2, §3, §4, §5, §6, §7

[7] = tested on: CAKI-1; test: NCI-60 screen, Renal Cancer; type: cell-based, human; settings: 10 μM
Method: as §2, §3, §4, §5, §6, §7

[8] = tested on: RXF 393; test: NCI-60 screen, Renal Cancer; type: cell-based, human; settings: 10 μM
Method: as §2, §3, §4, §5, §6, §7

[9] = tested on: UO-31; test: NCI-60 screen, Renal Cancer; type: cell-based, human; settings: 10 μM
Method: as §2, §3, §4, §5, §6, §7

[10] = tested on: E. coli D31
[11] = tested on: S. typhymurium ATTC 29631
[12] = tested on: 59 different human tumor cell lines; test: NCI-60 DTP human tumor cell line screen, single concentration, mean over panel; type: cell-based; settings: single concentration 10 μM, mean over 59 human tumor cell lines; for inhibition at 10 µM: Homo sapiens, read-out: mean growth inhibition; for NCI Screen Mean % Growth: 48 hours, SRB
Method: as §2, §3, §4, §5, §6

[13] = tested on: HS 578T; test: NCI-60 screen, Breast Cancer; type: cell-based, human; settings: 10 μM
Outline: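 Single-dose 10 μM screen on human tumour lines in RPMI 1640 with 5% FBS, 48 h compound exposure at 37 °C after 24 h pre-plating. Read-out is SRB protein stain (515 nm) after TCA fixation. Percentage growth is calculated relative to time-zero and untreated controls; negative values indicate cell kill.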

SMILES | 50% lysis (HC50) [1] [µg/mL] | IC90 ([2]; Homo sapiens, MCF7, MCF-7, tumorigenic, 48 hours incubation, XTT) [µg/mL] | Selectivity IC90/IC90 MCF10A ([2]; MCF-7 versus MCF10A) | IC90 ([3]; Homo sapiens, TMX2-28, tumorigenic, 48 hours incubation, XTT) [µg/mL] | Selectivity IC90/IC90 MCF10A ([3]; TMX2-28 versus MCF10A) | IC90 [4] [µg/mL] | Percent Growth [5] [%] | Percent Growth [6] [%] | Percent Growth [7] [%] | Percent Growth [8] [%] | Percent Growth [9] [%] | potent cytotoxicity against bacteria (concentration) [10] [µg/mL] | potent cytotoxicity against bacteria (concentration) [11] [µg/mL] | inhibition at 10 µM [12] [%] | NCI Screen Mean % Growth [12] [%] | Percent Growth [13] [%]
NCCc1cc(Br)cc(C#Cc2cccc(C#Cc3cc(Br)cc(CCN)c3)c2)c1 [Compound A] | 75 | 6.3 (≈ 12.1 µM) | 2 | 6.3 (≈ 12.1 µM) | 2 | 12.5 (≈ 23.9 µM) | 9.497 | −26.78 | 70.66 | −26.13 | 37.26 | 0.8 to 1.6 | 0.8 to 1.6 | – | – | –
N=C(N)NCCCCC(=O)Nc1cc(C(F)(F)F)cc(NC(=O)Nc2ccc(NC(=O)Nc3cc(C(F)(F)F)cc(NC(=O)CCCCNC(=N)N)c3OC3CCNC3)cc2)c1OC1CCNC1 (stereo not shown) [Compound B] | – | – | – | – | – | – | 49.97 | 58.61 | 56.42 | 87.84 | 45.67 | – | – | > 30 | 56.58 | –
N=C(N)NCCCCC(=O)Nc1cc(C(F)(F)F)cc(NC(=O)c2cc(C(=O)Nc3cc(C(F)(F)F)cc(NC(=O)CCCCNC(=N)N)c3SCCN)ncn2)c1SCCN [Compound C] | – | – | – | – | – | – | – | – | 47.81 | 78.06 | 73.64 | – | – | > 30 | 43.48 | –
NCCCc1cccc(-c2ccc3sc4ccc(-c5cccc(CCCN)c5)cc4c3c2)c1 [Compound D] | – | – | – | – | – | – | 62.06 | 79.48 | 82.82 | 81.71 | 85.61 | – | – | > 30 | 67.91 | –
c1cc(-c2ccc3sc4ccc(-c5ccnc(N6CCNCC6)c5)cc4c3c2)cc(N2CCNCC2)n1 [Compound E] | – | – | – | – | – | – | – | – | −13.76 | −70.65 | −41.12 | – | – | – | – | –
NCCSc1cc(SCCN)c(C(F)(F)F)cc1NC(=O)c1cc(C(=O)Nc2cc(C(F)(F)F)c(SCCN)cc2SCCN)ncn1 [Compound F] | – | – | – | – | – | – | – | 50.09 | 31.42 | 47.68 | 48.74 | – | – | > 30 | 41.28 | –
NCCCc1cccc(-c2ccc3oc4ccc(-c5cccc(CCCN)c5)cc4c3c2)c1 [Compound G] | – | – | – | – | – | – | 65.28 | 5.487 | 56.68 | 65.05 | 84.95 | – | – | > 30 | 49.56 | 100.4
